Data as given in ChEMBL document CHEMBL1268873, “Nitrile-containing pharmaceuticals: efficacious roles of the nitrile pharmacophore” (J Med Chem, 2010).
Converted amounts (≈) assume the structure as drawn.

Key:
L1210 = assay: Cytotoxicity against mouse L1210 cells; assay type: functional, cell-based; conditions: for IC50: Mus musculus, L1210
KB = assay: Cytotoxicity against human KB cells; assay type: functional, cell-based
[1] = Inhibition of HIV RT; set-up: species or system Human immunodeficiency virus

| Structure (SMILES) | IC50 (L1210) [µg/mL] | IC50 (KB) [µg/mL] | IC5 (L1210) [ng/mL] | IC50 [1] [nM] |
| --- | --- | --- | --- | --- |
| COc1cc([C@@H]2c3cc4c(cc3[C@@H](O[C@@H]3O[C@@H]5CO[C@H](C)O[C@H]5[C@H](O)[C@H]3O)[C@H]3COCC23)OCO4)cc(OC)c1OC (stereo not given in full) | 0.155 (≈ 0.263 µM) | 0.308 (≈ 0.523 µM) |  |  |
| COc1cc([C@@H]2c3cc4c(cc3[C@@H](C#N)[C@H]3COCC23)OCO4)cc(OC)c1OC (stereo not given in full) |  | 0.155 (≈ 0.379 µM) | 3.48 |  |
| COc1cc([C@@H]2c3cc4c(cc3[C@@H](C(=O)O)[C@H]3COCC23)OCO4)cc(OC)c1OC (stereo not given in full) | 0.164 (≈ 0.383 µM) | 10 (≈ 23.3 µM) |  |  |
| Cc1c(Oc2cc(Cl)cc(Cl)c2)c(C(C)C)nn1CCO |  |  |  | 560 |
| CCc1nn(CCO)c(CC)c1Oc1cccc(C#N)c1 |  |  |  | 350 |
| CC(C)c1nc(COC(N)=O)n(Cc2ccncc2)c1Sc1cc(Cl)cc(Cl)c1 [CAPRAVIRINE] |  |  |  | 93 |
| CCc1nn(CCO)c(CC)c1Oc1cc(C#N)cc(C#N)c1 [LERSIVIRINE] |  |  |  | 119 |
